Laboratory results taken from the NIST ThermoML archive (doi:10.1021/je5007532).

Experiment: xn = mol fraction of the nth substance listed
Details: for viscosity: 100 kPa, Falling or rolling sphere viscometry; for viscosity / speed of sound / mass density: Liquid; for speed of sound / mass density: 101 kPa; for speed of sound: Sing-around technique in a fixed-path interferometer; for mass density: Vibrating tube method; for surface tension liquid-gas: 294.4 K, Pendant drop shape

CC(C)CC(C)(C)C [2,2,4-trimethylpentane] + CCCCCCC
Details	mass density [kg/m3]	speed of sound [m/s]	viscosity [mPa·s]
293.15 K, x1 = 0.1	684.83	1146.5	0.416
293.15 K, x1 = 0.2001	685.71	1141.7	0.423
293.15 K, x1 = 0.2999	686.59	1136.6	0.43
293.15 K, x1 = 0.4001	687.45	1131.6	0.438
293.15 K, x1 = 0.5001	688.28	1127	0.447
293.15 K, x1 = 0.6	689.06	1122	0.456
293.15 K, x1 = 0.6999	689.77	1117.2	0.466
293.15 K, x1 = 0.8	690.5	1112.5	0.477
293.15 K, x1 = 0.9	691.17	1107.7	0.488
293.15 K, x1 = 1	691.84	1103.2	0.501
298.15 K, x1 = 0.1	680.61	1125.3	0.394
298.15 K, x1 = 0.2001	681.5	1120.5	0.4
298.15 K, x1 = 0.2999	682.4	1115.5	0.407
298.15 K, x1 = 0.4001	683.27	1110.5	0.415
298.15 K, x1 = 0.5001	684.12	1105.9	0.423
298.15 K, x1 = 0.6	684.91	1101	0.432
298.15 K, x1 = 0.6999	685.63	1096.2	0.441
298.15 K, x1 = 0.8	686.36	1091.6	0.451
298.15 K, x1 = 0.9	687.05	1086.7	0.462
298.15 K, x1 = 1	687.7	1082	0.473
303.15 K, x1 = 0.1	676.36	1103.9	0.373
303.15 K, x1 = 0.2001	677.27	1099.2	0.379
303.15 K, x1 = 0.2999	678.18	1094.2	0.386
303.15 K, x1 = 0.4001	679.07	1089.3	0.393
303.15 K, x1 = 0.5001	679.93	1084.7	0.4
303.15 K, x1 = 0.6	680.73	1079.9	0.408
303.15 K, x1 = 0.6999	681.46	1075.1	0.417
303.15 K, x1 = 0.8	682.2	1070.5	0.426
303.15 K, x1 = 0.9	682.89	1065.8	0.436
303.15 K, x1 = 1	683.59	1061.4	0.447
308.15 K, x1 = 0.1	672.09	1082.7	0.355
308.15 K, x1 = 0.2001	673.01	1078	0.36
308.15 K, x1 = 0.2999	673.93	1073.1	0.366
308.15 K, x1 = 0.4001	674.83	1068.2	0.373
308.15 K, x1 = 0.5001	675.71	1063.7	0.38
308.15 K, x1 = 0.6	676.52	1058.9	0.387
308.15 K, x1 = 0.6999	677.26	1054.2	0.396
308.15 K, x1 = 0.8	678.02	1049.7	0.404
308.15 K, x1 = 0.9	678.72	1045	0.413
308.15 K, x1 = 1	679.4	1040.4	0.423
313.15 K, x1 = 0.1	667.78	1061.7	–
313.15 K, x1 = 0.2001	668.71	1057	–
313.15 K, x1 = 0.2999	669.65	1052.2	–
313.15 K, x1 = 0.4001	670.57	1047.3	–
313.15 K, x1 = 0.5001	671.46	1042.8	–
313.15 K, x1 = 0.6	672.28	1038.1	–
313.15 K, x1 = 0.6999	673.03	1033.5	–
313.15 K, x1 = 0.8	673.8	1029	–
313.15 K, x1 = 0.9	674.52	1024.3	–
313.15 K, x1 = 1	675.23	1020	–
318.15 K, x1 = 0.1	663.44	1040.7	0.32
318.15 K, x1 = 0.2001	664.39	1036.1	0.325
318.15 K, x1 = 0.2999	665.34	1031.3	0.33
318.15 K, x1 = 0.4001	666.28	1026.5	0.336
318.15 K, x1 = 0.5001	667.18	1022.1	0.343
318.15 K, x1 = 0.6	668.02	1017.4	0.349
318.15 K, x1 = 0.6999	668.78	1012.8	0.356
318.15 K, x1 = 0.8	669.55	1008.4	0.363
318.15 K, x1 = 0.9	670.28	1003.8	0.372
318.15 K, x1 = 1	670.98	999.3	0.38
323.15 K, x1 = 0.1	659.07	1019.8	0.305
323.15 K, x1 = 0.2001	660.04	1015.2	0.309
323.15 K, x1 = 0.2999	661	1010.5	0.314
323.15 K, x1 = 0.4001	661.95	1005.7	0.32
323.15 K, x1 = 0.5001	662.86	1001.4	0.326
323.15 K, x1 = 0.6	663.71	996.8	0.332
323.15 K, x1 = 0.6999	664.49	992.3	0.338
323.15 K, x1 = 0.8	665.28	987.9	0.345
323.15 K, x1 = 0.9	666.02	983.3	0.353
323.15 K, x1 = 1	666.75	979.2	0.361
328.15 K, x1 = 0.1	654.65	999	0.291
328.15 K, x1 = 0.2001	655.64	994.4	0.295
328.15 K, x1 = 0.2999	656.61	989.8	0.3
328.15 K, x1 = 0.4001	657.59	985.1	0.305
328.15 K, x1 = 0.5001	658.52	980.8	0.311
328.15 K, x1 = 0.6	659.37	976.3	0.316
328.15 K, x1 = 0.6999	660.16	971.8	0.323
328.15 K, x1 = 0.8	660.98	967.4	0.329
328.15 K, x1 = 0.9	661.73	963	0.335
328.15 K, x1 = 1	662.44	958.7	0.343
333.15 K, x1 = 0.1	650.21	978.3	0.276
333.15 K, x1 = 0.2001	651.22	973.9	0.28
333.15 K, x1 = 0.2999	652.2	969.2	0.286
333.15 K, x1 = 0.4001	653.19	964.6	0.29
333.15 K, x1 = 0.5001	654.14	960.4	0.294
333.15 K, x1 = 0.6	655.01	955.8	0.3
333.15 K, x1 = 0.6999	655.81	951.6	0.306
333.15 K, x1 = 0.8	656.64	947.3	0.313
333.15 K, x1 = 0.9	657.4	942.9	0.319
333.15 K, x1 = 1	658.16	938.6	0.326
338.15 K, x1 = 0.1	645.76	957.8	–
338.15 K, x1 = 0.2001	646.75	953.3	–
338.15 K, x1 = 0.2999	647.77	948.7	–
338.15 K, x1 = 0.4001	648.75	944.3	–
338.15 K, x1 = 0.5001	649.71	940.1	–
338.15 K, x1 = 0.6	650.6	935.8	–
338.15 K, x1 = 0.6999	651.41	931.3	–
338.15 K, x1 = 0.8	652.29	927.2	–
338.15 K, x1 = 0.9	653.03	922.9	–
338.15 K, x1 = 1	653.8	918.7	–
343.15 K, x1 = 1	649.4	899	–

Details	surface tension liquid-gas [mN/m]
x1 = 0.1	19.9
x1 = 0.2001	19.7
x1 = 0.2999	19.5
x1 = 0.4001	19.4
x1 = 0.5001	19.2
x1 = 0.6999	19
x1 = 0.8	18.9
x1 = 1	18.7
